Data as given in ChEMBL document CHEMBL6121044, “Discovery of Novel Spirocyclic MAT2A Inhibitors Demonstrating High In Vivo Efficacy in MTAP-Null Xenograft Models” (J Med Chem, 2025).

Legend:
HCT-116 [1] = assay: In vivo antitumor activity against MTAP-deleted human HCT-116 cells xenografted mouse model assessed as tumor growth inhibition at 10 mg/kg, po qd measured after 18 days relative to control; type: functional; conditions: HCT-116, 432 h, time 18 day, read-out: TGI
HCT-116 [2] = assay: In vivo antitumor activity against MTAP-deleted human HCT-116 cells xenografted mouse model assessed as tumor growth inhibition at 30 mg/kg, po qd measured after 18 days relative to control; type: functional; conditions: HCT-116, 432 h, time 18 day, read-out: TGI
[3] = In vivo antitumor activity against MTAP-deleted human KP-4 cells xenografted mouse model assessed as tumor growth inhibition at 30 mg/kg, po qd measured after 18 days relative to control; type: functional; conditions: KP-4, 432 h, time 18 day, read-out: TGI
KP-4 = assay: In vivo antitumor activity against human KP-4 cells xenografted mouse model assessed as tumor growth inhibition at 90 mg/kg, po qd measured after 18 days relative to control; type: functional; conditions: KP-4, 432 h, time 18 day, read-out: TGI
[4] = Volume of distribution at steady state in male ICR mouse at 2 mg/kg, iv measured upto 24 hrs by LC-MS/MS analysis; type: ADME, organism-based; conditions: in vivo, read-out: Vdss
HCT-116 [5] = assay: In vivo antitumor activity against MTAP-deleted human HCT-116 cells xenografted mouse model assessed as tumor growth inhibition at 1 mg/kg, po qd measured after 18 days relative to control; type: functional; conditions: HCT-116, 432 h, time 18 day, read-out: TGI
HCT-116 [6] = assay: In vivo antitumor activity against MTAP-deleted human HCT-116 cells xenografted mouse model assessed as tumor growth inhibition at 3 mg/kg, po qd measured after 18 days relative to control; type: functional; conditions: HCT-116, 432 h, time 18 day, read-out: TGI
[7] = Toxicity in mouse xenografted with MTAP-deleted human HCT116 cells assessed as body weight loss at 10 mg/kg, po qd measured after 18 days relative to control; type: organism-based; conditions: in vivo, 432 h, time 18 day
[8] = In vivo antitumor activity against MTAP-deleted human KP-4 cells xenografted mouse model assessed as tumor growth inhibition at 10 mg/kg, po qd measured after 18 days relative to control; type: functional; conditions: KP-4, 432 h, time 18 day, read-out: TGI
[9] = In vivo antitumor activity against MTAP-deleted human NCI-H838 cells xenografted mouse model assessed as tumor growth inhibition at 3 mg/kg, po qd measured after 18 days relative to control; type: functional; conditions: NCI-H838, 432 h, time 18 day, read-out: TGI
[10] = In vivo antitumor activity against MTAP-deleted human NCI-H838 cells xenografted mouse model assessed as tumor growth inhibition at 10 mg/kg, po qd measured after 18 days relative to control; type: functional; conditions: NCI-H838, 432 h, time 18 day, read-out: TGI
[11] = Chronic toxicity in male ICR mouse assessed as body weight loss at 10 mg/kg, po once daily measured after 19 days relative to control; type: organism-based; conditions: in vivo, 456 h, time 19 day
[12] = Chronic toxicity in female ICR mouse assessed as body weight loss at 10 mg/kg, po once daily measured after 19 days relative to control; type: organism-based; conditions: in vivo, 456 h, time 19 day

Compound | inhibition in vivo at 10 mg/kg (HCT-116 [1]) [%] | inhibition in vivo at 30 mg/kg (HCT-116 [2]) [%] | inhibition in vivo at 30 mg/kg [3] [%] | inhibition in vivo at 90 mg/kg (KP-4) [%] | Vd [4] [L/kg] | inhibition in vivo at 1 mg/kg (HCT-116 [5]) [%] | inhibition in vivo at 3 mg/kg (HCT-116 [6]) [%] | Activity [7] | inhibition in vivo at 10 mg/kg [8] [%] | inhibition in vivo at 3 mg/kg [9] [%] | inhibition in vivo at 10 mg/kg [10] [%] | Activity [11] [%] | Activity [12] [%]
[2H]C([2H])([2H])NC1=NC(=O)[C@]2(CCc3ncccc32)c2cc(C(C)(F)F)ccc21 | 72.1 | 85.4 | 62 | 74 |  |  |  |  |  |  |  |  | 
[2H]C([2H])([2H])NC1=NC(=O)[C@]2(CCc3ncccc32)c2cc(C(F)(F)F)ccc21 |  |  |  |  | 1.7 | 61.9 | 85.9 | ~ 15% | 80 | 61.5 | 78.1 | 9.77 | 2.36
